Measured values published in PubChem BioAssay (NCI).
Several values for one entry are separate records, joined by “and”; a condition that tells them apart may be missing. Equal entries are not always repeated.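 Cells were grown in 96-well plates and exposed to each compound for 48 hours at five concentrations; endpoints were interpolated linearly between bracketing concentrations, or set to the highest concentration if not reached. The concentration for 50% growth inhibition is given as GI50. TGI denotes the concentration required for complete inhibition of growth.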

Experiments:
Test in all cases: DTP human tumour cell line panel, 48 h
[1] = tested on: 786-0 renal
[2] = tested on: COLO 205 colon
[3] = tested on: EKVX NSCLC
[4] = tested on: HCT-116 colon
[5] = tested on: HOP-62 NSCLC
[6] = tested on: K-562 leukemia
[7] = tested on: M14 melanoma
[8] = tested on: NCI-H226 lung
[9] = tested on: NCI-H522 lung
[10] = tested on: SF-268 CNS
[11] = tested on: SK-OV-3 ovarian
[12] = tested on: SR leukemia

Row | Compound | TGI [1] | TGI [2] | TGI [3] | TGI [4] | TGI [5] | TGI [6] | TGI [7] | TGI [8] | TGI [9] | TGI [10] | TGI [11] | TGI [12] | GI50 [3] | GI50 [8] | GI50 [10]
1 | O=c1[nH]c(=O)n(C2CC(O)C(CO)O2)cc1Oc1ccccc1 (configuration not stated) | > 100 µM | > 100 µM | > 100 µM | > 100 µM | > 100 µM | > 100 µM | > 100 µM | > 100 µM | > 100 µM | > 100 µM | > 100 µM | > 100 µM |  |  | 
2 | Cc1c(C(=O)c2ccc(N)c3ccccc23)c2ccccc2n1CCN1CCOCC1 | 80.6 µM | 86.9 µM | > 92.2 µM | 48.6 µM | > 90.1 µM | > 90.6 µM | 63.7 µM | > 100 µM | 58.4 µM | > 88.5 µM | > 100 µM | > 85.3 µM |  |  | 
3 | CC(C)(C)OC(=O)N/C(C=O)=C\C1CCCCC1 | 42.6 µM | 36.8 µM | 35.4 µM | 36 µM | 58.9 µM | 46.2 µM | 30.4 µM | 55.1 µM | > 100 µM | 52.3 µM | > 100 µM | 42.8 µM |  |  | 
4 | CSC(=S)Nc1cc(C)cc(C)n1 | > 31.6 µM | > 31.6 µM | > 31.6 µM | > 10 µM | > 100 µM | > 31.6 µM | > 31.6 µM | > 31.6 µM | > 31.6 µM | > 31.6 µM | > 31.6 µM | > 10 µM |  |  | 
5 | C[C@]12CC[C@H]3[C@@H](CCC4=CC(=O)C=C[C@@]43OC(=O)C(F)(F)F)[C@@H]1CCC2=O | > 83.5 µM | > 100 µM | > 100 µM | > 56 µM | > 100 µM | > 100 µM | > 100 µM | > 100 µM | > 100 µM | > 100 µM | > 100 µM | > 100 µM |  |  | 
6 | C(/C=N/NC1=NCCCCN1)=N\NC1=NCCCCN1 | > 100 µM | > 100 µM | > 100 µM | > 100 µM | > 100 µM | > 100 µM | > 100 µM | > 100 µM | > 100 µM | > 100 µM | > 100 µM | > 100 µM |  |  | 
7 | COc1ccc(-n2c(=O)c3[nH]c(=S)[nH]c3n(-c3ccc(OC)cc3)c2=S)cc1 | > 100 µM | > 100 µM | > 100 µM | > 100 µM | > 100 µM | > 100 µM | > 100 µM | > 100 µM | > 100 µM | > 100 µM | > 100 µM | > 100 µM |  |  | 
8 | CC(=O)n1cc(C2CC23N=C(c2ccccc2)OC3=O)c2ccccc21 (configuration not stated) | 33.5 µM | 44.8 µM | 51.1 µM | 27.9 µM | > 100 µM | 77.6 µM | 34.9 µM | 44.5 µM | 37.3 µM | 46.3 µM | > 100 µM | 40.3 µM |  |  | 
9 | O=C(O)CSc1ccccc1C(=O)O | > 100 µM | > 100 µM | > 100 µM | > 100 µM | > 100 µM | > 100 µM | > 100 µM | > 100 µM | > 100 µM | > 100 µM | > 100 µM | > 100 µM |  |  | 
10 | O=C1COc2cc(N3CCN(c4cccc(C(F)(F)F)c4)CC3)ccc2N1 | > 100 µM | > 100 µM | > 100 µM | > 100 µM | > 100 µM | > 100 µM | > 100 µM | > 100 µM | > 100 µM | > 100 µM | > 100 µM | > 100 µM |  |  | 
11 | CCC1(O)CC(OC2CC(N(C)C)C(OC3CC(O)C(OC4OC(C)C(=O)C=C4N)C(C)O3)C(C)O2)c2c(cc3c(c2O)C(=O)c2c(O)cccc2C3=O)C1C(=O)OC (configuration not stated) | 0.0971 µM | 0.338 µM and 0.766 µM | 0.539 µM and 1.43 µM | 1.79 µM | 1.14 µM and 0.344 µM | 0.262 µM and 1.73 µM | 0.656 µM | 0.347 µM and 0.0894 µM | 0.319 µM | 2.89 µM and 1.38 µM | 2.51 µM and 4.32 µM | 1.06 µM | 32.7 nM | 16.1 nM | 12.7 nM
12 | N#Cc1c(-c2ccc(Cl)cc2)cc(-c2ccc(Nc3ccnc4cc(Cl)ccc34)cc2)[nH]c1=O | > 100 µM | > 100 µM | > 100 µM | > 100 µM | > 62.8 µM | > 100 µM | > 100 µM | > 100 µM | > 100 µM | > 100 µM | > 79 µM | > 100 µM |  |  | 
13 | CCN1C/C(=C\c2ccc(Cl)cc2)c2nc(N)c(C#N)c(-c3ccc(Cl)cc3)c2C1 | > 100 µM | > 100 µM | > 100 µM | > 100 µM | > 100 µM | > 100 µM | > 100 µM | > 100 µM | > 100 µM | > 100 µM | > 100 µM | > 100 µM |  |  | 
14 | C=C(C(=O)O[C@H]1C/C(C)=C/CC/C(CO)=C/[C@H]2C(=O)OC(=C)[C@H]12)C(O)CO (some centres not stated) | 18.4 µM | 13.4 µM | 36.5 µM | 19.6 µM | > 59.9 µM | 14.8 µM | 28.5 µM | 37.7 µM | 3.3 µM | 39.6 µM | 35.1 µM | 6.81 µM |  |  | 
15 | CC(=O)O[C@H]1CC[C@@]2(C)C(=CC[C@@H]3[C@@H]2CC[C@]2(C)C(=N/O)/C(=C\c4ccccc4)C[C@@H]32)C1 | > 55.4 µM | 32 µM | 51.2 µM | > 100 µM | 71.6 µM | > 100 µM | 39.3 µM | 44.9 µM | 21.2 µM | > 80.8 µM | > 100 µM | > 42.3 µM |  |  | 
16 | NS(=O)(=O)c1nc(S(=O)(=O)O)c2[nH]cnc2n1 | > 100 µM | > 100 µM | > 100 µM | > 100 µM | > 100 µM | > 100 µM | > 100 µM | > 100 µM | > 100 µM | > 100 µM | > 100 µM | > 100 µM |  |  | 
17 | COC(=O)[C@@H]1CS(=O)(=O)C(C(C)C)N1C(C)=O (some centres not stated) | > 100 µM | > 100 µM | > 100 µM | > 100 µM | > 100 µM | > 100 µM | > 100 µM | > 100 µM | > 100 µM | > 100 µM | > 100 µM | > 100 µM |  |  | 
18 | Cc1cn(C2CCC(CO)(CF)O2)c(=O)[nH]c1=O (configuration not stated) | > 100 µM | > 100 µM | > 100 µM | > 100 µM | > 100 µM | > 100 µM | > 100 µM | > 100 µM | > 100 µM | > 100 µM | > 100 µM | > 100 µM |  |  | 
19 | NNC(=O)Nc1nc2ccc(NN)cc2[nH]1 | > 100 µM | 37.3 µM | > 100 µM | > 100 µM | > 100 µM | 42.1 µM | 84.4 µM | 89.8 µM | 92.6 µM | > 100 µM | > 100 µM | 43.2 µM |  |  | 
20 | N#CC1(C#N)C(C#N)(C#N)C1(C#N)C(N)=O | > 100 µM | > 100 µM | > 100 µM | > 100 µM | > 100 µM | > 100 µM | > 100 µM | > 100 µM | > 100 µM | > 100 µM | > 100 µM | > 100 µM |  |  | 
21 | c1nc(NCCc2cnc[nH]2)c2[nH]cnc2n1 | > 100 µM | > 100 µM | > 100 µM | > 100 µM | > 100 µM | > 100 µM | > 100 µM | > 100 µM | > 100 µM | > 100 µM | > 100 µM | > 100 µM |  |  | 
22 | O=C(Nc1sccc1S(=O)(=O)c1ccc(Cl)cc1)c1ccc(F)cc1F | 36.5 µM | > 100 µM | 43.5 µM | > 100 µM | 80.1 µM | 38.6 µM | > 100 µM | > 100 µM | 51.9 µM | 42.7 µM | 53.4 µM | 40.9 µM |  |  | 
23 | Cn1nc2ccc(Nc3cc(=O)[nH]c4ccc5nn(C)nc5c34)cc2n1 | > 100 µM | > 100 µM | > 100 µM | > 100 µM | > 100 µM | > 100 µM | > 100 µM | > 100 µM | > 100 µM | > 100 µM | > 100 µM | > 100 µM |  |  | 
24 | Cc1ccc(S(=O)(=O)N2C[C@@H]3CC[C@]4(CO[Si](C)(C)C(C)(C)C)N[C@@H](c5ccccc5)[C@H]2[C@H]34)cc1 | > 100 µM | 58.8 µM | > 100 µM | > 100 µM | > 100 µM | > 100 µM | > 100 µM | 57.1 µM | > 100 µM | > 100 µM | > 100 µM | > 100 µM |  |  | 
25 | CCCC[C@@H](C)/C=C1\CN2CCC[C@H]2[C@@](C)(OCc2ccccc2)[C@@H]1O | > 50 µM | > 50 µM | > 50 µM | > 50 µM | 18.4 µM | > 50 µM | > 50 µM | > 50 µM | > 50 µM | > 50 µM | > 50 µM | > 50 µM |  |  | 
26 | COc1cccc(N=N/C(=N/NC(=O)c2ccc(C)cc2)c2ccc(N(CCC#N)CCC#N)cc2OC)c1 | > 100 µM | > 100 µM | 37.4 µM | > 100 µM | > 100 µM | > 100 µM | > 100 µM | > 100 µM | > 100 µM | > 100 µM | > 100 µM | > 100 µM |  |  | 
27 | CN1/C(=C/C=C/C=C/C=C2C(=O)c3ccccc3C2=O)C(C)(C)c2ccccc21 | > 100 µM | > 100 µM | > 100 µM | > 100 µM | > 100 µM | > 100 µM | > 100 µM | > 100 µM | > 100 µM | > 100 µM | > 100 µM | > 100 µM |  |  | 
